Measurements as given in patent US20120202794A1 (priority 2011, published 2012).

What was measured:
HCV Replicon 1b = test: HCV inhibition assay, HCV replicon 1b (Clone A or ET-lunet cells; RT-PCR or luciferase reporter); format: cell-based; details: Hepatitis C virus, 96 h, HCV replicon 1b; 4 days incubation; read-out: Replicon 1b potency EC90
Description: HCV inhibition assay. Clone A or ET-lunet cells were seeded at a density of 1500 or 3000 cells per well in a 96-well plate, respectively. Test compounds serially diluted in culture medium without G418 were added to cells so that the final DMSO concentration was 0.5%. Plates were incubated at 37° C. in a 5% CO2 atmosphere for 4 days. Inhibition of HCV RNA replication was determined by real time PCR (RT-PCR) or by measuring the levels of luminescence expressed via the luciferase reporter gene encoded within the ET replicon. Briefly, for the RT-PCR assay, total RNA was extracted using the RNeasy-96 kit as recommended by the manufacturer (Qiagen, Valencia, Calif.), reversed transcribed into cDNA, and amplified using primer and probe mix for HCV 5′-NTR RNA and human ribosomal RNA (rRNA) in a one-step RT-PCR reaction as described previously (50). A relative quantification method was used to determine the extent of inhibition. The threshold cycle (Ct) of rRNA was subtracted from the Ct of HCV RNA (ΔCt). The average ΔCt of the DMSO cell controls was then subtracted from the ΔCt of the compound treated sample (ΔΔCt). Percent inhibition was determined by using the following equation: %=(1−(2^−ΔΔC^t))×100. For the luciferase-based replicon assay, luminescence was measured by using a Victor3 plate reader (Perkin-Elmer, Boston, Mass.) following the addition of Bright-Glo reagent as recommended by the manufacturer (Promega, Madison, Wis.). Percent inhibition of HCV replication was determined by comparing the change in luminescence of the drug treated wells versus the DMSO cell controls. EC50 and EC90 values, the concentrations at which 50% and 90% inhibition were achieved, were determined using the GraphPad Prism software (San Diego, Calif.).

[1] = Cell cytotoxicity assay (MTS), CC90 as reported in Table 1, cell line not stated; format: cell-based; details: human, cell line not given
Description: Cell cytotoxicity assays. Each compound (serially diluted from 100 μM) was added to Huh7 (2×10^3 cells/well), HepG2 (2×10^3 cells/well), BxPC3 (2×10^3 cells/well), or CEM (5×10^3 cells/well) cells and allowed to incubate for 8 days at 37° C. A medium only control was used to determine the minimum absorbance value […]. At the end of the growth period, MTS dye from the CellTiter 96 Aqueous One Solution Cell Proliferation Assay kit (Promega) was added to each well and the plate was incubated for an additional 2 hours. The absorbance at 490 nm was read with a Victor3 plate reader (Perkin Elmer) using the medium only control wells as blanks. The 90% inhibition value (CC90) was determined by comparing the absorbance in wells containing cells and test compound to untreated cell control wells.

| SMILES | EC90 (HCV Replicon 1b) | CC90 at 8 days ([1]; MTS assay, 8 days incubation) | CC90 at 8 days [1] |
| --- | --- | --- | --- |
| CSCCC1C(=O)N[C@@H](c2ccccc2)CN1C(=O)c1cc(-c2ccc(F)cc2)on1 (stereo in doubt) [Compound 458, (3R,6S)-4-(5-(4-fluorophenyl)isoxazole-3-carbonyl)-3-((methylthio)ethyl)-6-phenylpiperazin-2-one] | 2.07 µM | > 10 µM |  |
| CC(C)C[C@H]1C(=O)NC(c2ccccc2)N1C(=O)[C@H]1C[C@@H]1c1ccccc1 (stereo in doubt) [Compound 531, (2R,5S)-5-isobutyl-2-phenyl-1-((1S,2S)-2-phenylcyclopropanecarbonyl)imidazolidin-4-one] | > 10 µM | > 10 µM |  |
| CC(C)C[C@H]1C(=O)NC(c2ccccc2)N1C(=O)[C@H]1C[C@@H]1c1ccc(F)cc1 (stereo in doubt) [Compound 533, (2R,5S)-1-((1S,2S)-2-(4-fluorophenyl)cyclopropane-carbonyl)-5-isobutyl-2-phenyl-imidazolidin-4-one] | > 10 µM | > 10 µM |  |
| CC(C)C[C@H]1CN(C(=O)[C@@H]2C[C@H]2c2ccccc2)[C@@H](CC(C)C)C(=O)N1 [Compound 70] | 0.8 µM |  | > 10 µM |
| CC(C)C[C@H]1CN(C(=O)/C=C/c2ccc(Cl)cc2)[C@@H](CC(C)C)C(=O)N1 [Compound 72] | 2.5 µM |  | > 10 µM |
| CC(C)C[C@H]1CN(C(=O)/C=C/c2ccc(C(F)(F)F)cc2)[C@@H](CC(C)C)C(=O)N1 [Compound 73] | 3.34 µM |  | > 10 µM |
| CC(C)C[C@H]1CN(C(=O)/C=C/c2cccnc2)[C@@H](CC(C)C)C(=O)N1 [Compound 74] | > 10 µM |  | > 10 µM |
| C/C(=C\C(=O)N1C[C@H](CC(C)C)NC(=O)[C@@H]1CC(C)C)c1ccccc1 [Compound 75] | > 10 µM |  | > 10 µM |
| CC(C)C[C@H]1CN(C(=O)c2cc3ccccc3o2)[C@@H](CC(C)C)C(=O)N1 [Compound 76] | 9.18 µM |  | > 10 µM |
| CC(C)C[C@H]1CN(C(=O)/C=C/c2ccccc2)[C@@H](CC(C)C)C(=O)N1 [Compound 77] | 3.24 µM |  | > 10 µM |
| C/C(=C\c1ccccc1)C(=O)N1C[C@H](CC(C)C)NC(=O)[C@@H]1CC(C)C [Compound 78] | 9.93 µM |  | > 10 µM |
| Cc1ccc(/C=C/C(=O)N2C[C@H](CC(C)C)NC(=O)[C@@H]2CC(C)C)cc1 [Compound 79] | 5.29 µM |  | > 10 µM |
| CC(C)C[C@H]1CN(C(=O)/C=C/c2ccc(F)cc2)[C@@H](CC(C)C)C(=O)N1 [Compound 80] | 2.49 µM |  | > 10 µM |
| CC(C)C[C@H]1CN(C(=O)/C=C/c2ccc(Cl)c(Cl)c2)[C@@H](CC(C)C)C(=O)N1 [Compound 81] | 7.31 µM |  | > 10 µM |
| CC(C)C[C@H]1CN(C(=O)/C=C/c2ccc(F)c(F)c2)[C@@H](CC(C)C)C(=O)N1 [Compound 82] | 1.22 µM |  | > 10 µM |
| CC(C)C[C@H]1CN(C(=O)/C=C/c2cccc(F)c2)[C@@H](CC(C)C)C(=O)N1 [Compound 83] | 2.91 µM |  | > 10 µM |
| CC(C)C[C@H]1CN(C(=O)/C=C/c2cc(F)c(F)c(F)c2)[C@@H](CC(C)C)C(=O)N1 [Compound 84] | 2.64 µM |  | > 10 µM |
| CC(C)C[C@H]1CN(C(=O)/C=C/c2ccc(F)c(Cl)c2)[C@@H](CC(C)C)C(=O)N1 [Compound 85] | 8.65 µM |  | > 10 µM |
| CC(C)C[C@H]1CN(C(=O)/C=C/c2ccc(Cl)cc2F)[C@@H](CC(C)C)C(=O)N1 [Compound 86] | 0.59 µM |  | > 10 µM |
| CC(C)C[C@H]1CN(C(=O)/C=C/c2ccc(F)cc2F)[C@@H](CC(C)C)C(=O)N1 [Compound 87] | 0.57 µM |  | > 10 µM |
| Cc1cccc(C)c1NC(=O)CN1C[C@H](CC(C)C)NC(=O)[C@@H]1CC(C)C [Compound 88] | > 10 µM |  | > 10 µM |
| CC(C)C[C@H]1CN(C(=O)c2ccc(Oc3ccccc3)cc2)[C@@H](CC(C)C)C(=O)N1 [Compound 89] | 6.88 µM |  | > 10 µM |
| CC(C)C[C@H]1CN(C(=O)/C=C/c2ccc3c(c2)OCO3)[C@@H](CC(C)C)C(=O)N1 [Compound 90] | 7.72 µM |  | > 10 µM |
| CC(C)C[C@H]1CN(C(=O)/C=C/c2ccc([N+](=O)[O-])cc2)[C@@H](CC(C)C)C(=O)N1 [Compound 91] | > 10 µM |  | > 10 µM |

| SMILES | EC90 (HCV Replicon 1b) | CC90 at 8 days ([1]; MTS assay, 8 days incubation) | CC90 at 8 days [1] |
| --- | --- | --- | --- |
| CC(C)C[C@H]1CN(C(=O)/C=C/c2ccc(S(C)(=O)=O)cc2)[C@@H](CC(C)C)C(=O)N1 [Compound 92] | > 10 µM |  | > 10 µM |
| CC(C)C[C@H]1CN(C(=O)/C=C/c2ccc(C(F)(F)F)cc2F)[C@@H](CC(C)C)C(=O)N1 [Compound 93] | 9.62 µM |  | > 10 µM |
| CC(C)C[C@H]1CN(C(=O)/C=C/c2ccc(-c3ccccc3)cc2)[C@@H](CC(C)C)C(=O)N1 [Compound 94] | 8.37 µM |  | > 10 µM |
| CC(C)C[C@H]1CN(C(=O)/C=C/c2cc(F)cc(F)c2)[C@@H](CC(C)C)C(=O)N1 [Compound 95] | 9.31 µM |  | > 10 µM |
| CCC[C@H]1CN(C(=O)/C=C/c2ccc(F)cc2F)[C@@H](CC(C)C)C(=O)N1 [Compound 96] | 1.11 µM |  | > 10 µM |
| CC(C)C[C@H]1CN(C(=O)c2ccc(-c3ccccc3)o2)[C@@H](CC(C)C)C(=O)N1 [Compound 97] | 7.28 µM |  | > 10 µM |
| CC(C)C[C@H]1CN(C(=O)c2csc(-c3ccccc3)n2)[C@@H](CC(C)C)C(=O)N1 [Compound 98] | 7.92 µM |  | > 10 µM |
| CC(C)C[C@H]1CN(C(=O)c2coc(-c3ccccc3)n2)[C@@H](CC(C)C)C(=O)N1 [Compound 99] | > 10 µM |  | > 10 µM |
| CC(C)C[C@H]1CN(C(=O)c2cc(-c3ccccc3)[nH]n2)[C@@H](CC(C)C)C(=O)N1 [Compound 100] | > 10 µM |  | > 10 µM |
| CC(C)C[C@H]1CN(C(=O)c2c[nH]c(-c3ccccc3)n2)[C@@H](CC(C)C)C(=O)N1 [Compound 101] | > 10 µM |  | > 10 µM |
| CC(C)C[C@H]1CN(C(=O)c2cn(-c3ccccc3)cn2)[C@@H](CC(C)C)C(=O)N1 [Compound 102] | > 10 µM |  | > 10 µM |
| CC(C)C[C@H]1CN(C(=O)c2cn(-c3ccc(F)cc3)cn2)[C@@H](CC(C)C)C(=O)N1 [Compound 103] | 8.64 µM |  | > 10 µM |
| CC(C)C[C@H]1CN(C(=O)c2cnn(-c3ccc(F)cc3)c2)[C@@H](CC(C)C)C(=O)N1 [Compound 104] | 4.74 µM |  | > 10 µM |
| CC(C)C[C@H]1CN(C(=O)c2cc(-c3ccc(Cl)cc3)ns2)[C@@H](CC(C)C)C(=O)N1 [Compound 105] | 1.49 µM |  | > 10 µM |
| CC(C)C[C@H]1CN(C(=O)c2cc(C3CC3)on2)[C@@H](CC(C)C)C(=O)N1 [Compound 106] | 8.77 µM |  | > 10 µM |
| CCc1cc(C(=O)N2C[C@H](CC(C)C)NC(=O)[C@@H]2CC(C)C)no1 [Compound 107] | 8.41 µM |  | > 10 µM |
| CC(C)C[C@H]1CN(C(=O)c2cc(-c3ccccc3)on2)[C@@H](CC(C)C)C(=O)N1 [Compound 108] | 0.52 µM |  | > 10 µM |
| CC(C)C[C@H]1CN(C(=O)c2cc(-c3cccs3)on2)[C@@H](CC(C)C)C(=O)N1 [Compound 109] | 0.54 µM |  | > 10 µM |
| CC(C)C[C@H]1C(=O)N[C@@H](c2ccccc2)CN1C(=O)c1cc(-c2cccs2)on1 [Compound 110] | 0.59 µM |  | > 10 µM |
| CC(C)C[C@H]1C(=O)N[C@@H](C(C)C)CN1C(=O)c1cc(-c2cccs2)on1 [Compound 111] | 0.8 µM |  | > 10 µM |
| CC(C)C[C@H]1CN(C(=O)c2cc(-c3ccc(Cl)s3)on2)[C@@H](CC(C)C)C(=O)N1 [Compound 112] | 0.95 µM |  | > 10 µM |
| CC(C)C[C@H]1CN(C(=O)C#Cc2ccc(F)cc2)[C@@H](CC(C)C)C(=O)N1 [Compound 113] | 3.4 µM |  | > 10 µM |
| CC(C)C[C@H]1C(=O)N[C@@H](C2CCCC2)CN1C(=O)[C@@H]1C[C@H]1c1ccc(Br)cc1 [Compound 332, (3S,6S)-6-cyclopentyl-4-((1R,2R)-2-(4-bromophenyl)cyclopropanecarbonyl)-3-isobutylpiperazin-2-one] | 1.31 µM |  |  |
